Measured values as given in PMC9898036, “VIP152 is a selective CDK9 inhibitor with pre-clinical in vitro and in vivo efficacy in chronic lymphocytic leukemia” (Leukemia, 2022).

Tests used:
Experiment in all cases: DiscoverX KINOMEscan kinase profiling (468 assays)
Type in all cases: binding
human kinome [1] = biological target: human kinome (Homo sapiens, UniProt Q9UKI8); details: kinase TLK1 (Entrez TLK1); compound concentration 1000 nM; read-out: Percent Control
Outline: (§1)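 VIP152 was run in DMSO, alongside a DMSO control. Readout was qPCR of DNA-tagged kinase still bound to bead-immobilized biotinylated kinase ligands after compound competition.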

human kinome [2] = biological target: human kinome (Homo sapiens, UniProt P07948); details: LYN; 100 nM; read-out: Percent Control
Outline: as §1

human kinome [3] = biological target: human kinome (Homo sapiens, UniProt P00533, DEL752-759); details: EGFR(S752-I759del); 100 nM; read-out: Percent Control
Outline: as §1

human kinome [4] = biological target: human kinome (Homo sapiens, UniProt Q13164); details: ERK5 (Entrez MAPK7); 100 nM; read-out: Percent Control
Outline: as §1

human kinome [5] = biological target: human kinome (Homo sapiens, UniProt Q99755); details: read-out: Percent Control
Outline: as §1

human kinome [6] = biological target: human kinome (Homo sapiens, UniProt Q59H18); details: kinase TNNI3K (Entrez TNNI3K); compound concentration 1000 nM; read-out: Percent Control
Outline: as §1

human kinome [7] = biological target: human kinome (Homo sapiens, UniProt Q9BYP7); details: kinase WNK3 (Entrez WNK3); compound concentration 1000 nM; read-out: Percent Control
Outline: as §1

human kinome [8] = biological target: human kinome (Homo sapiens, UniProt Q9HAZ1); details: CLK4; 100 nM; read-out: Percent Control
Outline: as §1

human kinome [9] = biological target: human kinome (Homo sapiens, UniProt Q86Z02); details: HIPK1; 100 nM; read-out: Percent Control
Outline: as §1

human kinome [10] = biological target: human kinome (Homo sapiens, UniProt P42336, M1043I); details: read-out: Percent Control
Outline: as §1

human kinome [11] = biological target: human kinome (Homo sapiens, UniProt O94804); details: LOK (Entrez STK10); 100 nM; read-out: Percent Control
Outline: as §1

human kinome [12] = biological target: human kinome (Homo sapiens, UniProt Q99640); details: read-out: Percent Control
Outline: as §1

human kinome [13] = biological target: human kinome (Homo sapiens, UniProt O00329); details: read-out: Percent Control
Outline: as §1

human kinome [14] = biological target: human kinome (Homo sapiens, UniProt Q9NRM7); details: LATS2; 100 nM; read-out: Percent Control
Outline: as §1

human kinome [15] = biological target: human kinome (Homo sapiens, UniProt P54646); details: AMPK-alpha2 (Entrez PRKAA2); 100 nM; read-out: Percent Control
Outline: as §1

human kinome [16] = biological target: human kinome (Homo sapiens, UniProt O94806); details: read-out: Percent Control
Outline: as §1

human kinome [17] = biological target: human kinome (Homo sapiens, UniProt Q13177); details: read-out: Percent Control
Outline: as §1

human kinome [18] = biological target: human kinome (Homo sapiens, UniProt Q8WXR4); details: read-out: Percent Control
Outline: as §1

human kinome [19] = biological target: human kinome (Homo sapiens, UniProt Q8NEB9); details: kinase VPS34 (Entrez PIK3C3); compound concentration 1000 nM; read-out: Percent Control
Outline: as §1

human kinome [20] = biological target: human kinome (Homo sapiens, UniProt Q00537); details: read-out: Percent Control
Outline: as §1

human kinome [21] = biological target: human kinome (Homo sapiens, UniProt Q9H422); details: HIPK3; 100 nM; read-out: Percent Control
Outline: as §1

human kinome [22] = biological target: human kinome (Homo sapiens, UniProt P36896); details: ACVR1B; 100 nM; read-out: Percent Control
Outline: as §1

human kinome [23] = biological target: human kinome (Homo sapiens, UniProt Q9NQU5); details: read-out: Percent Control
Outline: as §1

human kinome [24] = biological target: human kinome (Homo sapiens, UniProt Q96L34); details: MARK4; 100 nM; read-out: Percent Control
Outline: as §1

human kinome [25] = biological target: human kinome (Homo sapiens, UniProt Q16513); details: read-out: Percent Control
Outline: as §1

human kinome [26] = biological target: human kinome (Homo sapiens, UniProt P48729); details: CSNK1A1; 100 nM; read-out: Percent Control
Outline: as §1

human kinome [27] = biological target: human kinome (Homo sapiens, UniProt P08581, M1250T); details: MET(M1250T); 100 nM; read-out: Percent Control
Outline: as §1

human kinome [28] = biological target: human kinome (Homo sapiens, UniProt Q15303); details: ERBB4; 100 nM; read-out: Percent Control
Outline: as §1

human kinome [29] = biological target: human kinome (Homo sapiens, UniProt Q9Y5S2); details: MRCKB (Entrez CDC42BPB); 100 nM; read-out: Percent Control
Outline: as §1

human kinome (Homo sapiens, UniProt Q99755), sequence (Q99755 whole entry): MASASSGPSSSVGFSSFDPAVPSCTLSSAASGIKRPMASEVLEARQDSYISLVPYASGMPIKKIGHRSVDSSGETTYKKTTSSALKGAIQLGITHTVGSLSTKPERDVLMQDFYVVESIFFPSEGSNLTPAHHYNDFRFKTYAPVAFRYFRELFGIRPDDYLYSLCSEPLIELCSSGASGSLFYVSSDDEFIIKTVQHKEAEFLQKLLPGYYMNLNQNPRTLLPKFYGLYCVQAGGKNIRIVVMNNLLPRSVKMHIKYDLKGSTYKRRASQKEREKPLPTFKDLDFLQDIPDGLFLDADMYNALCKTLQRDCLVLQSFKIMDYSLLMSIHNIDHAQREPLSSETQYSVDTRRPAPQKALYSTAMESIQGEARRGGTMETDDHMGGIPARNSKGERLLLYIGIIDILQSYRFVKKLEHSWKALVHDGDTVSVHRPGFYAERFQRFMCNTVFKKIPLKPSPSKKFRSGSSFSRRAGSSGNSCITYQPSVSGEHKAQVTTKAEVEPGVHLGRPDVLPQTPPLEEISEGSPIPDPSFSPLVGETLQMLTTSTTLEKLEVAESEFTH
human kinome (Homo sapiens, UniProt Q99640), sequence (Q99640 whole entry): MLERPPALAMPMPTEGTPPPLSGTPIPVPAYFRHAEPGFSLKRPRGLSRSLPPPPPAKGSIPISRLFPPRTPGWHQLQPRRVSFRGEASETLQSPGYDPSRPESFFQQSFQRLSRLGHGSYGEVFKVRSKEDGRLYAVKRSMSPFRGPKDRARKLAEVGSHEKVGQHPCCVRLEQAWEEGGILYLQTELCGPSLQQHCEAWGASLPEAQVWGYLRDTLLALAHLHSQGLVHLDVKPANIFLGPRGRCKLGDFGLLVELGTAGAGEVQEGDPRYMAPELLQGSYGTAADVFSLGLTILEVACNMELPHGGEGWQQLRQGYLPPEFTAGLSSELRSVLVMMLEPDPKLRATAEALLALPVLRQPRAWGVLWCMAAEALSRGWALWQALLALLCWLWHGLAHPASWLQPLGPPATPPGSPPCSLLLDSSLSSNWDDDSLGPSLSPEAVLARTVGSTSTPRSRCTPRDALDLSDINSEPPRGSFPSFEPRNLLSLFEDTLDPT
human kinome (Homo sapiens, UniProt Q9NQU5), sequence (Q9NQU5 whole entry): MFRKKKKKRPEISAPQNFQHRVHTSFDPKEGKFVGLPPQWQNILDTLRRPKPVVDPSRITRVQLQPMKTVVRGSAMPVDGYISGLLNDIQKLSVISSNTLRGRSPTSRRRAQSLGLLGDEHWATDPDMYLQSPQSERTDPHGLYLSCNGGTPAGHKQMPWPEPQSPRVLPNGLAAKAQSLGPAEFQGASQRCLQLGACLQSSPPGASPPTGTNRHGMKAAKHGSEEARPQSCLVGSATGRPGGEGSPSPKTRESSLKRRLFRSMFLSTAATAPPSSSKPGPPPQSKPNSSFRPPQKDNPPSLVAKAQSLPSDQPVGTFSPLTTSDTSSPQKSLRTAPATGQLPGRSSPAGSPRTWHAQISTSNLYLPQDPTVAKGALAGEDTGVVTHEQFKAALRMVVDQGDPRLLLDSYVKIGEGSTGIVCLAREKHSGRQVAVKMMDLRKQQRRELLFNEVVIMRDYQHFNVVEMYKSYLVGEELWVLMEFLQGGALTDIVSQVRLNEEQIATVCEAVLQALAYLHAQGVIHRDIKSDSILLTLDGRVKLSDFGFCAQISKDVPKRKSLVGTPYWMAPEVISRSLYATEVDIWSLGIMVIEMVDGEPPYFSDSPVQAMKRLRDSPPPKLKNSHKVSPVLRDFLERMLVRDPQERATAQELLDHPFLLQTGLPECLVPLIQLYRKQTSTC
human kinome (Homo sapiens, UniProt O00329), sequence (O00329 whole entry): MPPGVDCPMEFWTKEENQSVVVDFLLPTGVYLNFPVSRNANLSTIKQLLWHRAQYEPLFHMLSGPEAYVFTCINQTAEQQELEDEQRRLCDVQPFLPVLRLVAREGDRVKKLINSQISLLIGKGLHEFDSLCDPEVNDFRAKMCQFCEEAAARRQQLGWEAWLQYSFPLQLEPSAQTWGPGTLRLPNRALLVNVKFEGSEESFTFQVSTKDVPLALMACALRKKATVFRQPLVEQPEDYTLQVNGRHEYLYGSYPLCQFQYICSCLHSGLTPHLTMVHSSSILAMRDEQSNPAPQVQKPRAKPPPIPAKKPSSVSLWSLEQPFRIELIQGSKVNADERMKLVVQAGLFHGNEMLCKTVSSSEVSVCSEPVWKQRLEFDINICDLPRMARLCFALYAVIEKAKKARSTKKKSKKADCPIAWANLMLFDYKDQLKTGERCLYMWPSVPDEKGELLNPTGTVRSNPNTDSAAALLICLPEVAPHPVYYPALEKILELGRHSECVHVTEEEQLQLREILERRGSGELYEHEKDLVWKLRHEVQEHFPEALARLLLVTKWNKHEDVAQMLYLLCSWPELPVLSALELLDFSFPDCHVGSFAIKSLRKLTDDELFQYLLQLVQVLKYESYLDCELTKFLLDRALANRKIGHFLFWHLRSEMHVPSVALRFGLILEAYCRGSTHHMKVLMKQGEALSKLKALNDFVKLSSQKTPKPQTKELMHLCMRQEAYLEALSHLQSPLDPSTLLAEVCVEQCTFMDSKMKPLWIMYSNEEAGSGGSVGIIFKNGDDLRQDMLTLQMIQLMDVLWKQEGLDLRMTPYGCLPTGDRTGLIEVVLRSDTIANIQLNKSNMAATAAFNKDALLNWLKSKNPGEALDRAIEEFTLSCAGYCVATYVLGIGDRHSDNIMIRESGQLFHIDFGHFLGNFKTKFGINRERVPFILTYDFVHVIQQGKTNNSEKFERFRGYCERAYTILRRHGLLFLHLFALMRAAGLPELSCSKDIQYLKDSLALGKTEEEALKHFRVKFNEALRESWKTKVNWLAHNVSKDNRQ
human kinome (Homo sapiens, UniProt Q00537), sequence (Q00537 whole entry): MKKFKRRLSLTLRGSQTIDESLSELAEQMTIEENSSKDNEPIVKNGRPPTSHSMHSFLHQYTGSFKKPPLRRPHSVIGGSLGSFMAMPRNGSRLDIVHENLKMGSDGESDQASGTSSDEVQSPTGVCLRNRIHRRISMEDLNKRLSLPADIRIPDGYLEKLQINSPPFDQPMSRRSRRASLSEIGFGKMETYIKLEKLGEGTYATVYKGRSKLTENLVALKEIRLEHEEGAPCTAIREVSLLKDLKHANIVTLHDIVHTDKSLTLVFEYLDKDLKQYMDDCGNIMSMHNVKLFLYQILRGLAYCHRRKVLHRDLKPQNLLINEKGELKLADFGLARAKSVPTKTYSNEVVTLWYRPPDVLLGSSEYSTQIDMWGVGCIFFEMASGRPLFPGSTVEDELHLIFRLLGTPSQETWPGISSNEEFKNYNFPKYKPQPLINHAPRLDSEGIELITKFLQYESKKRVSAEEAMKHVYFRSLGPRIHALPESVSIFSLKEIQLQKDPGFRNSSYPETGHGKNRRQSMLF
human kinome (Homo sapiens, UniProt P42336, M1043I), sequence (P42336 whole entry M1043I): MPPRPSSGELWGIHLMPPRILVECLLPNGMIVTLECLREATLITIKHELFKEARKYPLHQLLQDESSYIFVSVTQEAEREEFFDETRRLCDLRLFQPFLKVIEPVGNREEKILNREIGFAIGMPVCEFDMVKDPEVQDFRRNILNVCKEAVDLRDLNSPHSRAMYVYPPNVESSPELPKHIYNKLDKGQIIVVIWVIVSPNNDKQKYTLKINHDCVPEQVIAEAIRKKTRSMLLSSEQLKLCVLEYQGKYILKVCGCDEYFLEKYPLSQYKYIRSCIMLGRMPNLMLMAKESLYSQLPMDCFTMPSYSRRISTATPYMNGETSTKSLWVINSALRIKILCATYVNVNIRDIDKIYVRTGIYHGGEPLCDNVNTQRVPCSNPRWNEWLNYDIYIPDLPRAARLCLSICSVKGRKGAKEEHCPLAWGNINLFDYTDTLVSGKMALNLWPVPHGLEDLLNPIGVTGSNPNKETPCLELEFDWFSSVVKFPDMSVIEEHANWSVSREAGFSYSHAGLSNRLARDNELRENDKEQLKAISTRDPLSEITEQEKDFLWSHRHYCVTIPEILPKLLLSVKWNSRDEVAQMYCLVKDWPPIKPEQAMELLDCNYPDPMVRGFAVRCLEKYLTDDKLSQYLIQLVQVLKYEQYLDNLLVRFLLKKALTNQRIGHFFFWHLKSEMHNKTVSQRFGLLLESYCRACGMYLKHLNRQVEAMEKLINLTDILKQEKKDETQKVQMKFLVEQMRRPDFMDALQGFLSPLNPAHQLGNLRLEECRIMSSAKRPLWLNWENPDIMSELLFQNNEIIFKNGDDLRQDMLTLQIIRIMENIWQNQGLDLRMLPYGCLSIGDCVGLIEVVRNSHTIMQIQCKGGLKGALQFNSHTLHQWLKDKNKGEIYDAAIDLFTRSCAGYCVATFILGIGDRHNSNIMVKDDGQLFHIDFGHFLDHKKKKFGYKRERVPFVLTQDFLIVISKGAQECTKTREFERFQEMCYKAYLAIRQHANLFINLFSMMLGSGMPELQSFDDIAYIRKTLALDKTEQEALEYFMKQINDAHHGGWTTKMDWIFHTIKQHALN
human kinome (Homo sapiens, UniProt Q13177), sequence (Q13177 whole entry): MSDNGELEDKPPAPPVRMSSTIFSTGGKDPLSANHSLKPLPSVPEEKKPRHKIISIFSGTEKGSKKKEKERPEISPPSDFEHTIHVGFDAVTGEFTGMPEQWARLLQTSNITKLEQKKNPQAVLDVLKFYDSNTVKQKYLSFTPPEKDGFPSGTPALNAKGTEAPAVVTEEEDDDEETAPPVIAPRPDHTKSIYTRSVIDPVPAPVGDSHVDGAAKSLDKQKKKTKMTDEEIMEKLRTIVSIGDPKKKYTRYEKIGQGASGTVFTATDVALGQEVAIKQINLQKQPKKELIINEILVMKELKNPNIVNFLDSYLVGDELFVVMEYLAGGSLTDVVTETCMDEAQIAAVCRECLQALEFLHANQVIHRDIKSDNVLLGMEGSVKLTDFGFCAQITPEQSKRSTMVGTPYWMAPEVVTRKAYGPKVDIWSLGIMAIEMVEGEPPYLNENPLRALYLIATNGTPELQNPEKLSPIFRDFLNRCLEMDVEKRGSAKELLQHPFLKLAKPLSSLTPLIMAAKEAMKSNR

How did the remaining binding at 1 µM (human kinome [1]) turn out when `COc1cc(F)ccc1-c1cc(Nc2cc(CS(C)(=N)=O)ccn2)ncc1F` (stereo not drawn) [VIP152] was run?
The remaining binding at 1 µM was 89%.

And the remaining binding at 0.1 µM (human kinome [2])?
The remaining binding at 0.1 µM was 100%.

And the remaining binding at 0.1 µM (human kinome [3])?
The remaining binding at 0.1 µM was 100%.

What about the remaining binding at 0.1 µM (human kinome [4]) of the same compound?
The remaining binding at 0.1 µM was 100%.

What about the remaining binding at 0.1 µM (human kinome [5]; PIP5K1A, 100 nM) of the same compound?
The remaining binding at 0.1 µM was 90%.

What about the remaining binding at 1 µM (human kinome [5]; kinase PIP5K1A (Entrez PIP5K1A), compound concentration 1000 nM) of the same compound?
The remaining binding at 1 µM was 18%.

What about the remaining binding at 1 µM (human kinome [6]) of the same compound?
The remaining binding at 1 µM was 27%.

What about the remaining binding at 1 µM (human kinome [7]) of the same compound?
The remaining binding at 1 µM was 92%.

What about the remaining binding at 0.1 µM (human kinome [8]) of the same compound?
The remaining binding at 0.1 µM was 100%.

What about the remaining binding at 0.1 µM (human kinome [9]) of the same compound?
Its remaining binding at 0.1 µM is 63%.

What about the remaining binding at 0.1 µM (human kinome [10]; PIK3CA(M1043I), 100 nM) of the same compound?
The remaining binding at 0.1 µM was 100%.

And the remaining binding at 1 µM (human kinome [10]; kinase PIK3CA(M1043I) (Entrez PIK3CA), compound concentration 1000 nM)?
The remaining binding at 1 µM was 84%.

And the remaining binding at 0.1 µM (human kinome [11])?
The remaining binding at 0.1 µM was 95%.

And the remaining binding at 0.1 µM (human kinome [12]; PKMYT1, 100 nM)?
The remaining binding at 0.1 µM was 100%.

What about the remaining binding at 1 µM (human kinome [12]; kinase PKMYT1 (Entrez PKMYT1), compound concentration 1000 nM) of the same compound?
The remaining binding at 1 µM was 45%.

And the remaining binding at 0.1 µM (human kinome [13]; PIK3CD, 100 nM)?
The remaining binding at 0.1 µM was 100%.

What about the remaining binding at 1 µM (human kinome [13]; kinase PIK3CD (Entrez PIK3CD), compound concentration 1000 nM) of the same compound?
The remaining binding at 1 µM was 75%.

And the remaining binding at 0.1 µM (human kinome [14])?
The remaining binding at 0.1 µM was 99%.

What about the remaining binding at 0.1 µM (human kinome [15]) of the same compound?
Its remaining binding at 0.1 µM is 100%.

And the remaining binding at 0.1 µM (human kinome [16]; PRKD3, 100 nM)?
The remaining binding at 0.1 µM was 91%.

And the remaining binding at 1 µM (human kinome [16]; kinase PRKD3 (Entrez PRKD3), compound concentration 1000 nM)?
Its remaining binding at 1 µM is 100%.

What about the remaining binding at 0.1 µM (human kinome [17]; PAK2, 100 nM) of the same compound?
Its remaining binding at 0.1 µM is 81%.

What about the remaining binding at 1 µM (human kinome [17]; kinase PAK2 (Entrez PAK2), compound concentration 1000 nM) of the same compound?
The remaining binding at 1 µM was 100%.

What about the remaining binding at 0.1 µM (human kinome [18]; MYO3B, 100 nM) of the same compound?
Its remaining binding at 0.1 µM is 100%.

And the remaining binding at 1 µM (human kinome [18]; kinase MYO3B (Entrez MYO3B), compound concentration 1000 nM)?
The remaining binding at 1 µM was 68%.

And the remaining binding at 1 µM (human kinome [19])?
The remaining binding at 1 µM was 100%.

And the remaining binding at 0.1 µM (human kinome [20]; PCTK2 (Entrez CDK17), 100 nM)?
The remaining binding at 0.1 µM was 100%.

And the remaining binding at 1 µM (human kinome [20]; kinase PCTK2 (Entrez CDK17), compound concentration 1000 nM)?
The remaining binding at 1 µM was 54%.

And the remaining binding at 0.1 µM (human kinome [21])?
The remaining binding at 0.1 µM was 100%.

What about the remaining binding at 0.1 µM (human kinome [22]) of the same compound?
The remaining binding at 0.1 µM was 100%.

And the remaining binding at 0.1 µM (human kinome [23]; PAK6, 100 nM)?
The remaining binding at 0.1 µM was 100%.

And the remaining binding at 1 µM (human kinome [23]; kinase PAK6 (Entrez PAK6), compound concentration 1000 nM)?
Its remaining binding at 1 µM is 91%.

What about the remaining binding at 0.1 µM (human kinome [24]) of the same compound?
Its remaining binding at 0.1 µM is 81%.

And the remaining binding at 0.1 µM (human kinome [25]; PKN2, 100 nM)?
The remaining binding at 0.1 µM was 96%.

And the remaining binding at 1 µM (human kinome [25]; kinase PKN2 (Entrez PKN2), compound concentration 1000 nM)?
The remaining binding at 1 µM was 92%.

What about the remaining binding at 0.1 µM (human kinome [26]) of the same compound?
Its remaining binding at 0.1 µM is 79%.

What about the remaining binding at 0.1 µM (human kinome [27]) of the same compound?
Its remaining binding at 0.1 µM is 92%.

And the remaining binding at 0.1 µM (human kinome [28])?
The remaining binding at 0.1 µM was 100%.

And the remaining binding at 0.1 µM (human kinome [29])?
The remaining binding at 0.1 µM was 100%.
